For one data set, the system named is H522. The data set can be described thus: IC50 assay, NSCLC cell lines (Cell Titer Glo, total ATP). The format is cell-based. The conditions noted are these: Homo sapiens. The gist of the method:
(§1)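 Cells seeded at ~15% confluence in RPMI with 5% FBS and 2 mM L-glutamine, then incubated three days at 5% CO2. Total ATP per well measured by CellTiter-Glo luminescence to derive IC50.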
For orientation: In ATP-based viability assays light output follows the ATP content of the culture.

The next data set deals with H2228. Described as above. The format is cell-based. Conditions: Homo sapiens. The gist of the method: as §1
Another data set has as its system H358. The description is as above. Conditions: Homo sapiens. The format is cell-based. The gist of the method: as §1
Another data set deals with H157. Described as above. The format is cell-based. The conditions noted are these: Homo sapiens. The gist of the method: as §1
For a further data set, the system named is H720. The description is as above. The format is cell-based. The conditions noted are these: Homo sapiens. The gist of the method: as §1
Data set [1] relates to tumors derived from parental HCT-116 cells. The data set can be described thus: Mouse xenograft model, parental HCT-116. The format is in vivo, Nod-Scid IL-2Rγ KO mice. On the procedure:
All animal work was approved by the Institutional Animal Care and Use Committee at UTSW. UTSW is accredited by the Association for Assessment and Accreditation of Laboratory Animal Care International (AAALAC). Animals were obtained from the UTSW Breeding Core Facility. Nod-Scid IL-2Rγ KO mice were implanted with 5 million parental HCT-116 cells or HCT-116 cells expressing RBM39 G268V in a volume of 0.1 ml in the left flank. Tumor volumes were measured every 2-4 days with calipers. Volume is calculated as (L*W^2)*3.14)/6.

Experimental findings from patent US20180140578A1, “METHODS AND COMPOSITIONS FOR THE DIAGNOSIS AND SELECTIVE TREATMENT OF CANCER” (Board of Regents of the University of Texas System, priority 2016, published 2018) are described below.

Entries after “also recorded” stand apart in the source; their conditions may differ. Like-named read-outs stand apart in the source and are kept apart here.

On to `NS(=O)(=O)c1ccc(S(=O)(=O)Nc2cccc3c(Cl)c[nH]c23)cc1` [Indisulam, indisulam], for which the IC50 in the data set with H522 (NCI-H522, read-out: Indisulam IC50 (log 10) (converted), U2AF1 WT) was 1.22 µM; in the data set with H522 (NCI-H522, read-out: Indisulam IC50, U2AF1 WT), 1.22 µM; with H2228 (NCI-H2228, read-out: Indisulam IC50 (log 10) (converted), U2AF1 WT), 1.26 µM; in the data set with H2228 (NCI-H2228, read-out: Indisulam IC50, U2AF1 WT) it was 1.26 µM; in the data set on H358 (NCI-H358, read-out: Indisulam IC50 (log 10) (converted), U2AF1 WT) it was no less than 500 µM; with H358 (NCI-H358, read-out: Indisulam IC50, U2AF1 WT), 2840 µM. Also, the IC50 in the data set on H157 (NCI-H157, read-out: Indisulam IC50 (log 10) (converted), U2AF1 WT) is 140 µM; in the data set with H157 (NCI-H157, read-out: Indisulam IC50, U2AF1 WT), 140 µM; with H720 (read-out: Indisulam IC50 (log 10) (converted), U2AF1 WT), 1.79 µM; in the data set with H720 (read-out: Indisulam IC50, U2AF1 WT) it was 1.79 µM. Moreover, the tumor response result in data set [1] (25 mg/kg indisulam intravenous once a day for eight days) is recorded as “complete regression; also recorded: regress”. In addition, the “Average maximal weight loss from start of therapy to 1 day post final dose” value in data set [1] (parental HCT-116 xenograft, 25 mg/kg once a day for eight days) is 5.2%.

By IC50 is commonly meant the concentration that inhibits the measured activity by half.
